Structures are written as SMILES.

For 39 molecules, Ki results are on record in BindingDB's records for PubMed 3010074 (Warner-Lambert/Parke-Davis Pharmaceutical Research, 1986).

Assay [1] addresses Adenosine receptor A2a (Homo sapiens, UniProt P29274).
Assay [2] concerns the target Adenosine receptor A2a (Rattus norvegicus, UniProt P30543).

Chain of Adenosine receptor A2a (Homo sapiens, UniProt P29274) (P29274 whole entry): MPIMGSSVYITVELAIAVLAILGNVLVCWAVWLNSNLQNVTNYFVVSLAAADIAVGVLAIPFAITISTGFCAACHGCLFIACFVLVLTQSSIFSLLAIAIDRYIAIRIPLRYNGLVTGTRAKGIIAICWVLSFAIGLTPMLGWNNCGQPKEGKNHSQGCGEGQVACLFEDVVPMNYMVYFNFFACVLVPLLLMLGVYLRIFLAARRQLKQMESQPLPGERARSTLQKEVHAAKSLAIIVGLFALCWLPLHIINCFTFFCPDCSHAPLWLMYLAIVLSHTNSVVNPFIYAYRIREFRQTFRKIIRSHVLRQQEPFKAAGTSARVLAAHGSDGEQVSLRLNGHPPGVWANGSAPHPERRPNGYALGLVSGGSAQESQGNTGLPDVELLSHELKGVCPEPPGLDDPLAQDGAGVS
Chain of Adenosine receptor A2a (Rattus norvegicus, UniProt P30543) (P30543 whole entry): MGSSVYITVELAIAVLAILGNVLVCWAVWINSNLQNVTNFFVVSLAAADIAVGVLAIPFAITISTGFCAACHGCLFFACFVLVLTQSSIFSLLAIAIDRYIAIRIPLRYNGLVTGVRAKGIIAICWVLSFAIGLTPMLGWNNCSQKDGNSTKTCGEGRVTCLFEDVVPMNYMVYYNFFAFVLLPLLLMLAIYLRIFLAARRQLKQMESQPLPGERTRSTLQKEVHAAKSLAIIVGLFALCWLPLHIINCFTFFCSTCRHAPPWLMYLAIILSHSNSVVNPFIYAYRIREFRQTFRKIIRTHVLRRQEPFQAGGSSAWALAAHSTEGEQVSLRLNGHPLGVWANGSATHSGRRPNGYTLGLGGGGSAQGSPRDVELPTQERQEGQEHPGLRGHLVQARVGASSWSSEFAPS

As for `Cn1c(=O)c2c(ncn2CCCl)n(C)c1=O` [7-(2-Chloroethyl)theophylline], the inhibitory constant (Ki) at Adenosine receptor A2a [1] was greater than 10 µM. Same read-out and setting: then `O=c1nc2[nH]c3ccccc3nc-2c(=O)[nH]1`, with 2.72 µM. The molecule `NC(=O)OC[C@H]1O[C@@H](n2cnc3c(N)ncnc32)[C@H](O)[C@@H]1O` [Ado-5'-carboxamide] showed a Ki at Adenosine receptor A2a [2] of 0.12 µM. Same read-out and setting: in the case of `CNc1ncnc2c1ncn2[C@H]1C[C@H](O)[C@@H](CO)O1` [2'-Deoxy-N6-methylado] it was greater than 10 µM; in that of `Nc1ncnc2c1ncn2[C@@H]1O[C@H](NC(=O)C2CCCCC2)[C@@H](O)[C@H]1O` [Ado-5'-cyclohexylcarboxamide], 4.3 µM.

For `CCC(=O)OC[C@H]1O[C@@H](n2cnc3c(N)ncnc32)[C@H](O)[C@@H]1O` [Ado-5'-ethylcarboxylate], the affinity on Adenosine receptor A2a [2], expressed as Ki, was 0.387 µM. As for `Cn1c(=O)c2nc(-c3ccccc3N)[nH]c2n(C)c1=O` [8-(2-Aminophenyl)theophylline], on Adenosine receptor A2a [1], the inhibition constant (Ki) stood at 1.43 µM.

Regarding `CSC[C@H]1O[C@@H](n2cnc3c(N)ncnc32)[C@H](O)[C@@H]1O` [(2R,3R,4S,5S)-2-(6-aminopurin-9-yl)-5-(methylsulfanylmethyl)oxolane-3,4-diol], the affinity on Adenosine receptor A2a [2] corresponds to a Ki of 1.1 µM.

In the case of `CCCCNc1c(C(=O)OCC)cnc2c1cnn2CC` [ethyl 4-(butylamino)-1-ethyl-1H-pyrazolo[3,4-b]pyridine-5-carboxylate], on Adenosine receptor A2a [1], the Ki turned out to be 2.24 µM. Regarding `Nc1nc(=O)[nH]c2c1ncn2[C@@H]1O[C@H](CO)[C@@H](O)[C@H]1O` [CAS_1818-71-9], the Ki at Adenosine receptor A2a [2] is 0.331 µM. The same measure, in the same setting: in the case of `Nc1nc(NC2CCCC2)nc2c1ncn2[C@@H]1O[C@H](CO)[C@@H](O)[C@H]1O` it was 0.462 µM. At Adenosine receptor A2a [1], `CCCCn1c(=O)c2c(ncn2C)n(C)c1=O` [NSC_70835] returned a Ki greater than 10 µM. The molecule `CC(=O)OCC1O[C@@H](n2cnc3c(N)ncnc32)[C@H](O)[C@@H]1O` (some centres undefined) [5'-O-Acetylado] yielded an inhibition constant Ki at Adenosine receptor A2a [2] of 4.51 µM. `CCn1c(=O)c2c(ncn2C)n(C)c1=O` [NSC_93219] returned a Ki at Adenosine receptor A2a [1] greater than 10 µM. The same measure, in the same setting: then `CC(C)Cn1c(=O)n(C)c(=O)c2[nH]cnc21` [1-methyl-3-(2-methylpropyl)-2,3,6,7-tetrahydro-1H-purine-2,6-dione], with greater than 10 µM; and `Cn1c(=O)c2[nH]c(-c3ccc(S(=O)(=O)O)cc3)nc2n(C)c1=O` [4-(1,3-Dimethyl-2,6-dioxo-2,3,6,7-tetrahydro-1H-purin-8-yl)-benzenesulfonic acid], with greater than 10 µM; and `CCCn1c(=O)c2nc(-c3ccc(N)cc3N)[nH]c2n(CCC)c1=O`, with 0.214 µM. In turn, `NC(=O)CCOC[C@H]1O[C@@H](n2cnc3c(N)ncnc32)[C@H](O)[C@@H]1O` [Ado-5'-(2-hydroxyethyl)carboxamide] yielded a Ki on Adenosine receptor A2a [2] of 0.0575 µM. Still for that read-out and setting: in the case of `COc1ccc(-c2nc(N)c3ncn([C@@H]4O[C@H](CO)[C@@H](O)[C@H]4O)c3n2)cc1` [2-(4-Methoxyphenyl)ado (CV-1674)] it was 0.605 µM; in that of `Nc1nccc2c1SCN2[C@@H]1O[C@H](CO)[C@@H](O)[C@H]1O` [7-Thia-9deazaado], greater than 10 µM.

In turn, `Cn1c(=O)c2[nH]c(-c3ccc(N)cc3)nc2n(C)c1=O` came in with an inhibitory constant (Ki) at Adenosine receptor A2a [1] of 0.391 µM. Molecule `Nc1ncnc2c1ncn2[C@@H]1O[C@H](CI)[C@@H](O)[C@H]1O` [5'-Deoxy-5'-iodoado] had an inhibitory constant (Ki) on Adenosine receptor A2a [2] of 0.637 µM. Turning to `Nc1ncnc2c1ncn2[C@@H]1O[C@H](CNC(=O)C2CC2)[C@@H](O)[C@H]1O` [Ado-5'-cyclopropylcarboxamide], on Adenosine receptor A2a [2], the inhibitory constant (Ki) came to 0.0134 µM. In the case of `Cn1c(=O)c2nc(-c3cccs3)[nH]c2n(C)c1=O` [CAS_267102], the affinity on Adenosine receptor A2a [1] corresponds to a Ki of 1.58 µM. As to `OC[C@H]1O[C@@H](n2cnc3c(NCc4ccccc4)ncnc32)[C@H](O)[C@@H]1O` [N6-benzylado], the Ki on Adenosine receptor A2a [2] turned out to be 0.285 µM.

Molecule `Cn1c(=O)c2[nH]c(-c3ccc(C(=O)O)cc3)nc2n(C)c1=O` [8-(4-Carboxyphenyl)theophylline] returned a Ki on Adenosine receptor A2a [1] of 7.26 µM. Turning to `Nc1ncnc2c1ncn2[C@@H]1O[C@H](CO[N+](=O)[O-])[C@@H](O)[C@H]1O` [5'-O-Nitroado], the Ki on Adenosine receptor A2a [2] was 0.335 µM. For the molecule `Cn1c(=O)c2[nH]c(-c3ccc([N+](=O)[O-])cc3)nc2n(C)c1=O` [8-(4-Nitrophenyl)theophylline], at Adenosine receptor A2a [1], the inhibition constant Ki is 2.52 µM. At Adenosine receptor A2a [1], `Cn1c(=O)[nH]c2nc[nH]c2c1=O` [1-Methyl-3,9-dihydro-purine-2,6-dione(1-methylxanthine)] gave an inhibition constant (Ki) greater than 10 µM. Molecule `CCn1c(=O)c2nc[nH]c2n(CC)c1=O` [NSC_101420] returned a Ki on Adenosine receptor A2a [1] greater than 10 µM. For `Cn1c(=O)c2[nH]c(-c3ccc(Cl)cc3)nc2n(C)c1=O`, the Ki at Adenosine receptor A2a [1] is 0.371 µM. Still for that read-out and setting: then `CCCCNc1c(C(=O)OCC)c(C)nc2c1cnn2CC` [NSC_5522], with 1.56 µM. On Adenosine receptor A2a [2], `O=c1[nH]c2c(ncn2[C@@H]2O[C@H](CO)[C@@H](O)[C@H]2O)c2nccn12` [1,N6-Ehteno-2-oxoado] came in with an inhibitory constant (Ki) greater than 10 µM.

With `Cn1c(N)c2ncn([C@@H]3O[C@H](CO)[C@@H](O)[C@H]3O)c2nc1=O` [1-Methyl-2-oxoado], the Ki at Adenosine receptor A2a [2] is 3.25 µM.

For the molecule `CCCc1nc2c([nH]1)c(=O)n(C)c(=O)n2C`, at Adenosine receptor A2a [1], the Ki is greater than 10 µM. Molecule `COc1ccc(-c2nc3c([nH]2)c(=O)n(C)c(=O)n3C)cc1` [8-(4-methoxyphenyl)-1,3-dimethyl-1H-purine-2,6(3H,7H)-dione] gave an inhibition constant (Ki) at Adenosine receptor A2a [1] of 0.419 µM.

In the case of `CSC[C@H]1O[C@@H](n2cnc3c(N)nc(Cl)nc32)[C@H](O)[C@@H]1O` [2-Chloro-5'-methylthioado], at Adenosine receptor A2a [2], the Ki was 1.88 µM. Same read-out and setting: then `Nc1nccc2c1ncn2[C@@H]1O[C@H](CO)[C@@H](O)[C@H]1O` [CAS_6736-58-9], with greater than 10 µM. As for `CCCn1c(=O)c2[nH]c(-c3ccc(Cl)cc3N)nc2n(CCC)c1=O` [NSC_92411], the inhibitory constant (Ki) on Adenosine receptor A2a [1] turned out to be 0.0919 µM.

The Ki is the equilibrium dissociation constant of an inhibitor or competing ligand from its target. A high value points to a looser hold on the target.
